Experiments:
Type in all cases: biochemical
HDAC6 enzyme = biological target: T1, HDAC6 enzyme (Homo sapiens, UniProt Q9UBN7); assay: HDAC1/6 Enzyme Inhibitory Assay (HDAC-Glo I/II Assay kit), HDAC6; conditions: 1 μM test compound, wells without enzyme = 100% inhibition; for inhibition at 1 µM: read-out: HDAC6 inhibitory rate (%) (1 μM)
T1 construct: transducing full length HDAC1 and HDAC6 genes into Sf-9 insect cells; GST; purchased SignalChem; host or cells: Sf-9 insect cells
T1 sequence (Q9UBN7 1-1215): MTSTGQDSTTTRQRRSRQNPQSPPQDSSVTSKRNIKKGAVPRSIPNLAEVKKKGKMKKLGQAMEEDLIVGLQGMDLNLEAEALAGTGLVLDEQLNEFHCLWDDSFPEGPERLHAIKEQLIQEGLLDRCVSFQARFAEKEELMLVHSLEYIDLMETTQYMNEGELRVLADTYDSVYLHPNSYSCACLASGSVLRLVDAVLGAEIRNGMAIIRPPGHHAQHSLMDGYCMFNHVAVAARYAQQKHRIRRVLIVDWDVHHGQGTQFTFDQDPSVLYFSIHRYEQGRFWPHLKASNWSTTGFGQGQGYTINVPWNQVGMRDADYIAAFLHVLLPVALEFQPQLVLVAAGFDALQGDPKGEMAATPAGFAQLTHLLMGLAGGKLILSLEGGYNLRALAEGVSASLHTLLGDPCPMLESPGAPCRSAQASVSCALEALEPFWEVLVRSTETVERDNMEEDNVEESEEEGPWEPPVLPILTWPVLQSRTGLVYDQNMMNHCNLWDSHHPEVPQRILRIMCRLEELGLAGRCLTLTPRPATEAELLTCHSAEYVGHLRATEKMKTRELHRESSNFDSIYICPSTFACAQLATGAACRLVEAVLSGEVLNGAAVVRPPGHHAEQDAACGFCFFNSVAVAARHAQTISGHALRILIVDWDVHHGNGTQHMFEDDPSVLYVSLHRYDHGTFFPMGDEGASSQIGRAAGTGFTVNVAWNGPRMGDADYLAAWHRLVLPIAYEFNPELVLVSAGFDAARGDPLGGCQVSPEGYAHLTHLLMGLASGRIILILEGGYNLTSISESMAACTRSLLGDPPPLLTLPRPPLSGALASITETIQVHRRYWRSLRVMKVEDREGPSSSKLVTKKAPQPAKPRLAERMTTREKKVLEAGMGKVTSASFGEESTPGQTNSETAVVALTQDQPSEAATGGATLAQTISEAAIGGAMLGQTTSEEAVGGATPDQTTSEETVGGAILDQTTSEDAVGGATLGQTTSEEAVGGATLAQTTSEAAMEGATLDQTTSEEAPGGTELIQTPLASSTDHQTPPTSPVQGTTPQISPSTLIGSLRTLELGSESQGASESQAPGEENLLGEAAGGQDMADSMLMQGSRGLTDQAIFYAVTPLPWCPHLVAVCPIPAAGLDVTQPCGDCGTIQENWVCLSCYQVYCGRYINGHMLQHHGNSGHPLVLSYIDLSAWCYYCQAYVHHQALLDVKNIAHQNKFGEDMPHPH
How it was run: (§1)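 Luminescent HDAC-Glo I/II read-out was taken 20 min after adding substrate-developer, at room temperature. Before this, compound and enzyme were held together for 60 min in 24 mM Tris-HCl pH 7.5 with 0.6 mM glutathione and 0.01% Tween-20. The enzyme was full-length HDAC1 or HDAC6 from Sf-9 cells, GST-purified. Wells without enzyme defined 100% inhibition.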

HDAC1 enzyme = biological target: T2, HDAC1 enzyme (Homo sapiens, UniProt Q13547); assay: HDAC1/6 Enzyme Inhibitory Assay (HDAC-Glo I/II Assay kit), HDAC1; conditions: 1 μM test compound, wells without enzyme = 100% inhibition; for inhibition at 1 µM: read-out: HDAC1 inhibitory rate (%) (1 μM)
T2 construct: transducing full length HDAC1 and HDAC6 genes into Sf-9 insect cells; GST; purchased SignalChem; host or cells: Sf-9 insect cells
How it was run: as §1

HDAC9 enzyme = biological target: T3, HDAC9 enzyme (Homo sapiens, UniProt Q9UKV0); assay: HDAC9 Enzyme Inhibitory Assay (HDAC-Glo class IIa); conditions: 1 μM test compound, wells without enzyme = 100% inhibition; for inhibition at 1 µM: read-out: HDAC9 inhibitory rate (%) (1 μM)
T3 construct: transducing full length HDAC9 gene into Sf-9 insect cells; made in house; host or cells: Sf-9 insect cells
How it was run: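 Luminescent HDAC-Glo class IIa readout after a 20 min room-temperature reaction; relative inhibition referenced to enzyme-free wells as 100%. Test compound first preincubated 60 min with Sf-9-expressed, Ni-NTA-purified full-length HDAC9 in pH 7.5 Tris buffer containing 135 mM NaCl, 0.6 mM glutathione and 0.01% Tween-20.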

T2 sequence (Q13547 whole entry): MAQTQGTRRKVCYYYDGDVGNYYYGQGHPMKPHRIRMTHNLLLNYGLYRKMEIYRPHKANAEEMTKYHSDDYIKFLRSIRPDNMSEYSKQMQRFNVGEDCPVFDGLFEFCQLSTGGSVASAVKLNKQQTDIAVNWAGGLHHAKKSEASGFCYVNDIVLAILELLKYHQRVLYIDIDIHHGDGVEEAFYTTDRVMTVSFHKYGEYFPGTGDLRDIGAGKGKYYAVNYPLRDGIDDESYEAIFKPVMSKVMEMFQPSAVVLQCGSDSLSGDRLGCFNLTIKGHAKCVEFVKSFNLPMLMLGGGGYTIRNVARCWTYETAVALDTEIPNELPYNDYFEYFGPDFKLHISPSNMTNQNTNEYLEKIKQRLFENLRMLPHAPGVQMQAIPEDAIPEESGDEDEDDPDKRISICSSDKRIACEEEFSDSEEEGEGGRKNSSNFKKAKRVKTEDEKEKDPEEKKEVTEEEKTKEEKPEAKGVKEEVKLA
T3 sequence (Q9UKV0 whole entry, species assumed): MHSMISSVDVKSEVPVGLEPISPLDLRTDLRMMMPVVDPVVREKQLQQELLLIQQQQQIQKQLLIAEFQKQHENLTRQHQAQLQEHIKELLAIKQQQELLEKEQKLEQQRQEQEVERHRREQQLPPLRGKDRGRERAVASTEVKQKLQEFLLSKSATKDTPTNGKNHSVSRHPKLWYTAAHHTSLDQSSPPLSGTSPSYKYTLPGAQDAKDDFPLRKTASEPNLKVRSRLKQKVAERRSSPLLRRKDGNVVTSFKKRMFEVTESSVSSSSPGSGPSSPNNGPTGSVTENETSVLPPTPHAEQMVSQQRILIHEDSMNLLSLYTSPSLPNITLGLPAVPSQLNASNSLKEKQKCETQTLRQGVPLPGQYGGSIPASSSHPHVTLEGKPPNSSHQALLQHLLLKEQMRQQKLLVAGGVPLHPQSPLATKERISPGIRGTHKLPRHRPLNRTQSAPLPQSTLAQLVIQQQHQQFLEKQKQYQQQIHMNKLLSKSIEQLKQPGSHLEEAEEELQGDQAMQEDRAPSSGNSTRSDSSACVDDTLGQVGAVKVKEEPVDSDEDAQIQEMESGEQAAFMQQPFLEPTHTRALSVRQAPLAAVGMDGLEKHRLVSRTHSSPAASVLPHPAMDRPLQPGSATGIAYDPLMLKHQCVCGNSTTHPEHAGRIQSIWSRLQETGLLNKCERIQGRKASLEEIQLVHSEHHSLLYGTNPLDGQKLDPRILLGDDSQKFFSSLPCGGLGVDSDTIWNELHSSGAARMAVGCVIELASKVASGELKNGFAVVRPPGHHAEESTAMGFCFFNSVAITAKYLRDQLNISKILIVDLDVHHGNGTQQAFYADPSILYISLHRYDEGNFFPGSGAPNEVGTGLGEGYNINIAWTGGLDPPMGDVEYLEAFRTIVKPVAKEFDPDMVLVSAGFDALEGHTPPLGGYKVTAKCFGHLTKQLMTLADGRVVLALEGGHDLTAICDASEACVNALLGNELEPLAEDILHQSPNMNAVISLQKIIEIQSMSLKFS

inhibition at 1 µM (HDAC6 enzyme) [%] | inhibition at 1 µM (HDAC1 enzyme) [%] | inhibition at 1 µM (HDAC9 enzyme) [%] | HDAC1 inhibitory rate (%) (1 μM) (HDAC1 enzyme) | HDAC6 inhibitory rate (%) (1 μM) (HDAC6 enzyme) | HDAC9 inhibitory rate (%) (1 μM) (HDAC9 enzyme) | Structure (SMILES)
97 | 97 | 99 | – | – | – | O=C1c2cc(-c3noc(C(F)(F)F)n3)ccc2CN1[C@@H]1CCNC[C@H]1c1ccc(Cl)c(F)c1 (relative stereo) [Example 52, 2-(trans-3-(4-chloro-3-fluorophenyl)piperidin-4-yl)-6-(5-(trifluoromethyl)-1,2,4-oxadiazol-3-yl)isoindolin-1-one]
98 | 12 | 66 | – | – | – | CC1(C(=O)N[C@@H]2CCCC[C@H]2N2Cc3ccc(-c4noc(C(F)(F)F)n4)cc3C2=O)CC1 [Example 36, 1-methyl-N-((1R,2R)-2-(1-oxo-6-(5-(trifluoromethyl)-1,2,4-oxadiazol-3-yl)-1,3-dihydro-2H-isoindol-2-yl)cyclohexyl) cyclopropanecarboxamide]
93 | 37 | 94 | – | – | – | O=C(Cc1ccc(F)cc1)N1CCCC(N2Cc3ncc(-c4noc(C(F)(F)F)n4)cc3C2=O)C1 (stereo not drawn) [Example 41, 6-(1-((4-fluorophenyl)acetyl)piperidin-3-yl)-3-(5-(trifluoromethyl)-1,2,4-oxadiazol-3-yl)-6,7-dihydro-5H-pyrrolo[3,4-b]pyridin-5-one]
55 | 10 | 56 | – | – | – | O=C(N[C@H]1CCOC[C@@H]1N1Cc2ccc(-c3noc(C(F)(F)F)n3)cc2C1=O)[C@H]1CCOC1 [Example 210, (3S)-N-((3R,4S)-3-(1-oxo-6-(5-(trifluoromethyl)-1,2,4-oxadiazol-3-yl)-1,3-dihydro-2H-isoindol-2-yl)tetrahydro-2H-pyran-4-yl)tetrahydrofuran-3-carboxamide]
40 | -5 | 58 | – | – | – | CC(C)(C)OC(=O)N1CC[C@@H](N2Cc3cc(-c4noc(C(F)(F)F)n4)ccc3C2=O)[C@H](c2ccccc2)C1 (relative stereo) [Example 135, tert-butyl-trans-4-(1-oxo-5-(5-(trifluoromethyl)-1,2,4-oxadiazol-3-yl)-1,3-dihydro-2H-isoindol-2-yl)-3-phenylpiperidine-1-carboxylate]
99 | 90 | 98 | – | – | – | Cc1ccc([C@@H]2CNCC[C@H]2N2Cc3ccc(-c4noc(C(F)(F)F)n4)cc3C2=O)cc1F (relative stereo) [Example 48, 2-(trans-3-(3-fluoro-4-methylphenyl)piperidin-4-yl)-6-(5-(trifluoromethyl)-1,2,4-oxadiazol-3-yl)isoindolin-1-one]
40 | 5 | 50 | – | – | – | CC(C)(O)C(=O)N[C@H]1CCCC[C@@H]1N1Cc2ccc(-c3noc(C(F)(F)F)n3)cc2C1=O [Example 219, 2-hydroxy-2-methyl-N-((1S,2S)-2-(1-oxo-6-(5-(trifluoromethyl)-1,2,4-oxadiazol-3-yl)-1,3-dihydro-2H-isoindol-2-yl)cyclohexyl)propanamide]
100 | 12 | 36 | – | – | – | CC(C)N(C(=O)N[C@@H]1CCCC[C@H]1N1Cc2ccc(-c3noc(C(F)(F)F)n3)cc2C1=O)C(C)C [Example 166, 1,1-diisopropyl-3-((1R,2R)-2-(1-oxo-6-(5-(trifluoromethyl)-1,2,4-oxadiazol-3-yl)-1,3-dihydro-2H-isoindol-2-yl)cyclohexyl)urea]
96 | – | 77 | 31 | – | – | O=C(N[C@H]1CCOC[C@H]1N1Cc2ccc(-c3noc(C(F)(F)F)n3)cc2C1=O)C1CC1(F)F (single isomer, unassigned) [Example 213, (1R) or (1S)-2,2-difluoro-N-((3S,4S)-3-(1-oxo-6-(5-(trifluoromethyl)-1,2,4-oxadiazol-3-yl)-1,3-dihydro-2H-isoindol-2-yl)tetrahydro-2H-pyran-4-yl)cyclopropanecarboxamide]
97 | 2 | 35 | – | – | – | O=C1NCCC1C(=O)N[C@@H]1CCCC[C@H]1N1Cc2ccc(-c3noc(C(F)(F)F)n3)cc2C1=O (stereo partly drawn) [Example 108, 2-oxo-N-((1Rr2R)-2-(1-oxo-6-(5-(trifluoromethyl)-l ,2,4-oxadiazol-3-yl)-1,3-dihydro-2H-isoindol-2-yl)cyclohexyl)pyrrolidine-3-carboxamide]
99 | 5 | 24 | – | – | – | CN1CCC[C@@H]1C(=O)N[C@@H]1CCCC[C@H]1N1Cc2ccc(-c3noc(C(F)(F)F)n3)cc2C1=O [Example 94, 1-methyl-N-((1R,2R)-2-(1-oxo-6-(5-(trifluoromethyl)-1,2,4-oxadiazol-3-yl)-1,3-dihydro-2H-isoindol-2-yl)cyclohexyl)-D-prolinamide]
99 | 11 | 57 | – | – | – | CC1(C)CC1C(=O)N[C@@H]1CCCC[C@H]1N1Cc2ccc(-c3noc(C(F)(F)F)n3)cc2C1=O (stereo partly drawn) [Example 107, 2,2-dimethyl-N-((1R,2R)-2-(1-oxo-6-(5-(trifluoromethyl)-1,2,4-oxadiazol-3-yl)-1,3-dihydro-2H-isoindol-2-yl)cyclohexyl) cyclopropanecarboxamide]
-4 | -1 | 52 | – | – | – | N[C@H]1CCC[C@@H]1N1Cc2ccc(-c3noc(C(F)(F)F)n3)cc2C1=O [Example 143, 2-((1S,2S)-2-aminocyclopentyl)-6-(5-(trifluoromethyl)-1,2,4-oxadiazol-3-yl)isoindolin-1-one]
– | – | – | −1 | 43 | 33 | O=C(N[C@@H]1CCOC[C@@H]1N1Cc2ccc(-c3noc(C(F)(F)F)n3)cc2C1=O)C1CC1(F)F (single isomer, unassigned) [Example 211, (1R) or (1S)-2,2-difluoro-N-((3R,4R)-3-(1-oxo-6-(5-(trifluoromethyl)-1,2,4-oxadiazol-3-yl)-1,3-dihydro-2H-isoindol-2-yl)tetrahydro-2H-pyran-4-yl)cyclopropanecarboxamide]
– | – | – | 16 | 100 | 64 | CC1(C(=O)N[C@@H]2CCCC[C@H]2N2Cc3ccc(-c4noc(C(F)(F)F)n4)cc3C2=O)CC1(F)F (stereo partly drawn) [Example 170, 2,2-difluoro-1-methyl-N-((1R,2R)-2-(1-oxo-6-(5-(trifluoromethyl)-1,2,4-oxadiazol-3-yl)-1,3-dihydro-2H-isoindol-2-yl)cyclohexyl) cyclopropanecarboxamide]
34 | -2 | 45 | – | – | – | N[C@H]1CCCC[C@@H]1N1Cc2ccc(-c3noc(C(F)(F)F)n3)cc2C1=O [Example 29, 2-((1S,2S)-2-aminocyclohexyl)-6-(5-(trifluoromethyl)-1,2,4-oxadiazol 3-yl)isoindolin-1-one]
90 | 32 | 80 | – | – | – | O=C1c2ccc(-c3noc(C(F)(F)F)n3)cc2CN1[C@@H]1CNCC[C@H]1c1ccccc1 (relative stereo) [Example 72, trans-2-(4-phenylpiperidin-3-yl)-5-(5-(trifluoromethyl)-1,2,4-oxadiazol-3-yl)isoindolin-1-one]

Source: patent US10308643B2, “Heterocyclic compound” (Takeda Pharmaceutical Company Limited, priority 2015, dated 2019)
